For one data set, the system named is KMS-34 cells. The data set is described as follows: In vitro long-term proliferation (LTP) 14-day assay, KMS-34. The format is cell-based, human. To be noted: FIG. 2C, comparison of enantiomers.
Another data set relates to KMS11 TKO cells. Put plainly: In vitro long-term proliferation (LTP) 14-day assay, KMS11 TKO. The settings on record: KMS11 TKO (non-translocated WHSC1 allele only), 14 days. The class given is cell-based, human. The source says:
In Vitro Long-Term Proliferation (LTP) Assay

The next data set has as its system H3K36me3 / H3K36me2. Put plainly: Western blot of H3K36 methyl marks in KMS-34 cells. The class given is cell-based, human. To be noted: KMS-34, after 14 days. (In general: In western blotting, separated proteins are transferred to a membrane and probed.)
For another data set, the system named is KMS11 tumors. The format is in vivo. On the procedure: NOD SCID mice received 1×10^7 cells (0.1 mL cell suspension) subcutaneously in the right flank. […] The maximal treatment length was 28 days. Tumor volumes (twice weekly) and body weight (daily) were recorded throughout the experiment. On day 7 or day 28 during the studies, mice were sampled in a pre-specified fashion. Sampling included nonterminal retro-orbital bleeds and full volume blood collection via terminal cardiac puncture under CO2 anesthesia. Blood samples were processed for plasma, with K2-EDTA as anticoagulant, and PBMCs isolated. The samples were frozen at −80° C. and stored before analysis. Tumors were harvested from specified mice under RNase-free conditions and snap frozen in liquid nitrogen. Bone marrow was flushed from the femur using 1×PBS, strained over a 40 um nylon strainer, and flash frozen. Histones were extracted from tumors, bone marrow, and PBMCs as previously described.
(§1) Fluorescent-Based ELISA Assay (Fluroimmunoassay (FIA) Detection of Anti-Histone H3 Tri-Methyl K36)
Histones were prepared in coating buffer and added directly to high-binding 96 well plates. Plates were left at 4° C. overnight to allow histones to adhere. […] Plates were imaged on the Odyssey Imaging System (LI-COR Biosciences) using both 700 nm and 800 nm channels. The average of the ratio values for each test sample was calculated by dividing the 800 nm (H3K36me3) value by the 700 nm value (total H3) and used to determine the percent of H3K36me3 from vehicle.

The test system of the next data set is MM.1S tumors. The data set is described as follows: MM.1S non-t(4;14) multiple myeloma xenograft. The format is in vivo, CB17 SCID mice. Here is the method: CB17 SCID mice were inoculated subcutaneously in the right flank with MM.1S tumor cells (5×10^6) in 0.2 mL of PBS mixed with Matrigel (50:50). After 18 days, mice bearing 100 to 150 mm^3 tumors were sorted into treatment groups with mean tumor volumes of 103 mm^3 (n=10 mice per group). […] The maximal treatment length was 23 days. Tumor volumes and body weight were recorded twice weekly throughout the experiment. On day 18 or day 41 during the studies, mice were sampled in a pre-specified fashion. Sampling included nonterminal retro-orbital bleeds and full volume blood collection via terminal cardiac puncture under CO2 anesthesia. Blood samples were processed for plasma, with K2-EDTA as anticoagulant, and PBMCs isolated. The samples were frozen at −80° C. and stored before analysis. Tumors were harvested from specified mice under RNase-free conditions and snap frozen in liquid nitrogen. Bone marrow was flushed from the femur using 1×PBS, strained over a 40 um nylon strainer, and flash frozen.
as §1
Histones were prepared in coating buffer and added directly to high-binding 96 well plates. […] The average of the ratio values for each test sample was calculated by dividing the 800 nm (H3K36me3) value by the 700 nm value (total H3) and used to determine the percent of H3K36me3 from vehicle.

The conditions of data set [1]: mouse, in vivo.
Procedure: Dose Range Finding Studies
(§2) All the procedures related to animal handling, care, and treatment in this study were performed according to the guidelines approved by the Institutional Animal Care and Use Committee of Pharmaron, Beijing, China and following the guidance of the Association for Assessment and Accreditation of Laboratory Animal Care.
(§3) Six to eight-week-old NOD SCID mice were purchased from Beijing HFK Bioscience Co., Ltd. Mice were housed in polycarbonate cages maintained at a temperature of (22+/−3° C.) and relative humidity of 40-70%. Animals had free access to sterile drinking water and irradiation sterilized dry granule food throughout the study.
Data set [2] is described as follows: 7-day dose range finding study in mice.
Procedure: Dose Range Finding Studies
as §2, §3

Entries after “also recorded” stand apart in the source; their conditions may differ.

Procedure for H3K36me3 / H3K36me2: Cells were pelleted, washed with ice-cold 1×PBS, resuspended in ice-cold NP40 buffer, and incubated on ice for 30 minutes before sonication (Amplitude 30%/5 sec×1). […] Blots were imaged using the Odyssey Imaging System (LICOR Biosciences).

As to `CC(=O)N1CCN([C@H]2CCC[C@@H](NC(=O)c3cc4c(F)ccc(C)c4[nH]3)C2)CC1` [Cpd. No. 15, N-((1R,3S)-3-(4-acetylpiperazin-1-yl)cyclohexyl)-4-fluoro-7-methyl-1H-indole-2-carboxamide], the proliferation defects entry in the data set with KMS-34 cells is on record as “proliferation defects”. For the same molecule, in the data set with KMS11 TKO cells, the proliferation effect entry is reported as “no proliferation effects”. Further, in the data set on H3K36me3 / H3K36me2, the H3K36me2 level entry is given as “unaffected; also recorded: remained unaltered” and the H3K36me3 level result is “dose-dependent decrease; also recorded: reduced”. Moreover, the “effect on body weight” value in the data set with KMS11 tumors (31.25 mg/kg and 62.5 mg/kg, 28 days BID) is “minimal effects on body weight”. For the same molecule, the “H3K36me3 in histones from tumor (fluorescent-based ELISA)” value in the data set with KMS11 tumors (day 28, all doses) is “complete reduction”. Besides, the tumor response result in the data set with KMS11 tumors (oral, 28 days, dose-dependent) is “robust tumor growth regression”. The “H3K36me3 in MM.1S tumor samples (fluorescent-based ELISA)” value with MM.1S tumors (BID oral dosing) is recorded as “reduction; also recorded: dose dependent decrease”. In addition, the body weight entry with MM.1S tumors (all doses, 23 continuous days BID) is on record as “minimal body weight loss; also recorded: minimal changes in body weight”. Moreover, the tolerability result in data set [1] is “very well tolerated”. Moreover, the body weight result in data set [2] (62.5 and 125 mg/kg BID, 7 days, versus vehicle control) was “No body weight loss”. Besides, the “H3K36me3 levels in naïve bone marrow” value in data set [2] (oral dosing, 7-day study) is listed as “substantial reduction”.

(Values after US20230049113A1, “METHODS OF TREATING WHSC1-OVEREXPRESSING CANCERS BY INHIBITING SETD2” (priority 2018, published 2023).)
